Measured values taken from ChEMBL document CHEMBL5584233, “Amide bioisosteric replacement in the design and synthesis of quorum sensing modulators” (Eur J Med Chem, 2024).
Blank lines part the entries; values can stand above or below the compound they belong to.

Columns and labels:
[1] = molecular target: T1, Transcriptional regulator MvfR (Pseudomonas aeruginosa PA14, UniProt A0A072ZLE6); assay: Inhibition of PqsR-mediated quorum sensing system in Pseudomonas aeruginosa PAO1 assessed as inhibition of pyocyanin production at 20 uM incubated for 24 hrs by absorbance based assay
T1 sequence (A0A072ZLE6 whole entry): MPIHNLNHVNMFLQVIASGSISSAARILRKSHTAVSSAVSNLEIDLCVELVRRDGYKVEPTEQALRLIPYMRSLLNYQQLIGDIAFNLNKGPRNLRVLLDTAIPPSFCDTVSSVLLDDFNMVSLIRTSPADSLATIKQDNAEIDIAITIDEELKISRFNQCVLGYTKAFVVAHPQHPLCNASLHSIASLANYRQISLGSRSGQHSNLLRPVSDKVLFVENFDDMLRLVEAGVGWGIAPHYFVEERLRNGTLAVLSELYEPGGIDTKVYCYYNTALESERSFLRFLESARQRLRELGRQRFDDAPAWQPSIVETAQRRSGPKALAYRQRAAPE

[2] = system: Pseudomonas aeruginosa; assay: Antibiofilm activity against Pseudomonas aeruginosa PAO1 assessed as inhibition of biofilm formation at 50 uM incubated for 24 hrs by crystal violet staining based absorbance assay relative to control; assay type: functional; set-up: scale not given: the % may be the effect or the level left
[3] = molecular target: T2, Transcriptional activator protein TraR (Agrobacterium tumefaciens, UniProt P33905); assay: Antagonist activity at Agrobacterium tumefaciens TraR receptor
T2 sequence (P33905 whole entry): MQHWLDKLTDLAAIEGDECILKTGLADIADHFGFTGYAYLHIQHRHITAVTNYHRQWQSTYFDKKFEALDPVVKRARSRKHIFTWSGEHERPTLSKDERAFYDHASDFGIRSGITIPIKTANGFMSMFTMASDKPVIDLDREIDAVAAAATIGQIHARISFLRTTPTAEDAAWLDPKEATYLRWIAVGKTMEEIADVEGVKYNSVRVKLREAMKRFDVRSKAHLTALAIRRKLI

[4] = molecular target: T1, Transcriptional regulator MvfR; assay: Antagonist activity at PqsR in wild-type Pseudomonas aeruginosa PAO1-L assessed as reduction in HHQ level at 0.1 uM by LCMS/MS analysis
[5] = molecular target: T3, Transcriptional activator protein LasR (Pseudomonas aeruginosa (strain ATCC 15692 / PAO1 / 1C / PRS 101 / LMG12228), UniProt P25084); assay: Inhibition of LasR-mediated quorum sensing system in Pseudomonas aeruginosa PAO1 assessed as inhibition of pyocyanin production incubated for 24 hrs by absorbance based assay
T3 sequence (P25084 whole entry): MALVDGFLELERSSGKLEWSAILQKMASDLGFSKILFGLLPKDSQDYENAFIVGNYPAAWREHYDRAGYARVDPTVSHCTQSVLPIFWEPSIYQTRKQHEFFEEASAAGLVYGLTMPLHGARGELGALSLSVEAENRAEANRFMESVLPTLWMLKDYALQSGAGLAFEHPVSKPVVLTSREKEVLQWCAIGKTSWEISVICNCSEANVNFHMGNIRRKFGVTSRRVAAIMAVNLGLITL

[6] = Inhibition of quorum sensing system in Pseudomonas aeruginosa PAO1 transfected with lasB-GFP by measuring reduction in fluorescence intensity measured for 16 hrs by fluorescence assay
[7] = molecular target: T1, Transcriptional regulator MvfR; assay: Inhibition of PqsR-mediated quorum sensing system in Pseudomonas aeruginosa PAO1 assessed as inhibition of pyocyanin production incubated for 24 hrs by absorbance based assay
[8] = molecular target: T1, Transcriptional regulator MvfR; assay: Antagonist activity at PqsR in Pseudomonas aeruginosa IPCD48 clinical isolate assessed as reduction in PQS level at 0.1 uM by LCMS/MS analysis
[9] = Inhibition of quorum sensing system in Vibrio fischeri; set-up: species or system Aliivibrio fischeri
[10] = Inhibition of quorum sensing system in Pseudomonas aeruginosa PAO1
[11] = molecular target: T1, Transcriptional regulator MvfR; assay: Antagonist activity at PqsR in wild-type Pseudomonas aeruginosa PAO1 assessed as reduction in AQ level
[12] = molecular target: T4, Transcriptional regulator MvfR (Pseudomonas aeruginosa PA14) (UniProt A0A072ZLE6); assay: Inhibition of PqsR-mediated quorum sensing system in Pseudomonas aeruginosa PAO1 assessed as inhibition of pyocyanin production at 100 uM relative to control
T4 sequence (whole entry): T1 sequence (A0A072ZLE6 whole entry)

[13] = molecular target: T3, Transcriptional activator protein LasR; assay: Inhibition of LasR-mediated quorum sensing system in Pseudomonas aeruginosa PAO1 assessed as inhibition of elastase production
[14] = Inhibition of quorum sensing system in Chromobacterium violaceum CV026 assessed as reduction in violacein production

Compound: Nc1cc(NCC(=O)Nc2ccc(F)cc2)cc(C(F)(F)F)n1
IC50 [1]: 0.48 µM

Compound: O=C(Nc1cc(=O)c2ccccc2o1)c1ccc([N+](=O)[O-])cc1[N+](=O)[O-]
Activity [2]: 90%

IC50 [3]: 0.8 µM
Compound: CCCCCCS(=O)(=O)N[C@H]1CCOC1=O

Compound: CCCCCCOC(=O)N[C@H]1CCOC1=O
IC50 [4]: 73 µM

Compound: Fc1ccc(-n2cc(CNc3ccnc(C(F)(F)F)c3)nn2)cc1
IC50 [1]: 0.196 µM

Compound: CCCCS(=O)(=O)N[C@H]1CCOC1=O
IC50 [3]: 0.6 µM

IC50 [5]: 4 µM
Compound: CO[C@H]1O[C@H](CNS(=O)(=O)c2c(C)cc(C)cc2C)[C@@H](O)[C@H](O)[C@@H]1O

Compound: CCCCCCc1cncn1C1CCOC1=O (stereo not drawn)
IC50 [1]: 110 µM

IC50 [6]: 4.8 µM
Compound: O=C(NCCc1ccc(Br)cc1)c1ccccc1[N+](=O)[O-]

IC50 [5]: 3 µM
Compound: Cc1cc(C)c(S(=O)(=O)NC[C@H]2O[C@@H](C)[C@@H](O)[C@@H](O)[C@@H]2O)c(C)c1

Compound: O=C(Nc1cc(=O)c2ccccc2o1)c1ccc(F)cc1
Activity [2]: 65.3%

Compound: CCCCCCNC(=O)NC1CCOC1=O (stereo not drawn)
IC50 [7]: 1 µM

Compound: CCOC(=O)CC(=O)c1ccc(F)cc1
IC50 [8]: 23 µM

Compound: O=C(N[C@H]1CCOC1=O)OCc1ccc([N+](=O)[O-])cc1
IC50 [4]: 22 µM

Compound: CCCCCS(=O)(=O)NC1CCOC1=O (stereo not drawn)
IC50 [9]: 2 µM

IC50 [10]: 1.1 µM
Compound: CCCCCCCCCCS(=O)(=O)N[C@H]1CCOC1=O

Compound: FC(F)(F)c1cc(NCc2cn(-c3ccc(Oc4ccccc4)cc3)nn2)ccn1
IC50 [1]: 0.011 µM

Compound: CCCCCCc1cncn1CC(=O)OCC
IC50 [1]: 87 µM

Compound: CCCCCCCCCCCCn1nnc(CC(=O)O)n1
IC50 [11]: 0.03 µM

inhibition [12]: 74%
Compound: COc1ccc(NC(=O)Cn2cc(CSc3nc4ccccc4c(=O)n3C3CC3)nn2)cc1

IC50 [6]: 6.6 µM
Compound: O=C(NCc1cc(F)cc(F)c1)c1ccccc1[N+](=O)[O-]

Compound: O=C(N[C@H]1CCOC1=O)SCc1ccc([N+](=O)[O-])cc1
IC50 [4]: 23 µM

inhibition [12]: 62%
Compound: CCCCNC(=O)CSc1nc2ccccc2c(=O)n1C1CC1

Compound: O=C(Nc1ccc(F)cc1)c1cc(=O)c2ccccc2o1
Activity [2]: 73.3%

Compound: CCCCSC(=O)N[C@H]1CCOC1=O
IC50 [4]: 45 µM

Compound: CCCCCNC(=O)NC1CCOC1=O (stereo not drawn)
IC50 [7]: 1.1 µM

Compound: O=C(Nc1ccc([N+](=O)[O-])cc1)c1cc(=O)c2ccccc2o1
Activity [2]: 58.7%

IC50 [10]: 1 µM
Compound: CCCCCCCCCS(=O)(=O)N[C@H]1CCOC1=O

IC50 [13]: 60 µM
Compound: O=[N+]([O-])c1ccccc1S(=O)(=O)Nc1ccc(S(=O)(=O)Nc2nccs2)cc1

Compound: O=C1OCCC1NS(=O)(=O)CCc1ccccc1 (stereo not drawn)
IC50 [9]: 3 µM

Compound: O=C(Oc1c(Br)cc(Br)cc1CNC(=O)c1ccccc1[N+](=O)[O-])c1ccccc1Cl
IC50 [11]: 0.038 µM

Compound: O=C(CN1CCOCC1)Oc1cccc([N+](=O)[O-])c1
IC50 [8]: 22 µM

IC50 [14]: 6.2 µM
Compound: O=C(Nc1ccc(S(=O)(=O)N[C@H]2CCOC2=O)cc1)c1sccc1Cl

IC50 [5]: 88 µM
Compound: C[C@@H]1O[C@H](CNC(=O)/C=C/c2ccccc2)[C@@H](O)[C@H](O)[C@@H]1O

IC50 [14]: 1.6 µM
Compound: O=C(Nc1ccc(S(=O)(=O)N[C@H]2CCOC2=O)cc1)c1ccccc1F

IC50 [6]: 6.5 µM
Compound: O=C(NCc1cccc(I)c1)c1ccccc1[N+](=O)[O-]

Compound: CCOC(=O)CC(=O)c1ccccc1
IC50 [8]: 76 µM

Compound: O=C(CN1CCOCC1)Nc1cccc([N+](=O)[O-])c1
IC50 [8]: > 483 µM
